Experimental data taken from ChEMBL document CHEMBL1157642, “2-Amino-5-benzoyl-4-phenylthiazoles: Development of potent and selective adenosine A1 receptor antagonists” (Bioorg Med Chem, 2010).
Positions count from the first letter of the chain named.

How the values were obtained:
[1] = biological target: T1, Adenosine receptor A1 (Rattus norvegicus) (UniProt P25099); assay: Displacement of [3H]CCPA from adenosine A1 receptor in rat brain cortex membrane at 1 uM; assay type: cell membranes
T1 sequence (whole entry): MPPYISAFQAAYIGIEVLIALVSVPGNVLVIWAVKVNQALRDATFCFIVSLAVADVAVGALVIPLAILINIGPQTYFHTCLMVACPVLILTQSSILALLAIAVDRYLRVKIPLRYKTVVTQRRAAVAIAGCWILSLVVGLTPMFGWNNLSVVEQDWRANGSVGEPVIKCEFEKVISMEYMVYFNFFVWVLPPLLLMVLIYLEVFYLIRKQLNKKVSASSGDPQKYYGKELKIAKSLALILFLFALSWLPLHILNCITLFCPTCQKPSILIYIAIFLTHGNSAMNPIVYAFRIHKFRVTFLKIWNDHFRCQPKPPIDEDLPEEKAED

Adenosine receptor A2a [2] = biological target: T2, Adenosine receptor A2a (Rattus norvegicus, UniProt P30543)
T2 sequence (P30543 whole entry): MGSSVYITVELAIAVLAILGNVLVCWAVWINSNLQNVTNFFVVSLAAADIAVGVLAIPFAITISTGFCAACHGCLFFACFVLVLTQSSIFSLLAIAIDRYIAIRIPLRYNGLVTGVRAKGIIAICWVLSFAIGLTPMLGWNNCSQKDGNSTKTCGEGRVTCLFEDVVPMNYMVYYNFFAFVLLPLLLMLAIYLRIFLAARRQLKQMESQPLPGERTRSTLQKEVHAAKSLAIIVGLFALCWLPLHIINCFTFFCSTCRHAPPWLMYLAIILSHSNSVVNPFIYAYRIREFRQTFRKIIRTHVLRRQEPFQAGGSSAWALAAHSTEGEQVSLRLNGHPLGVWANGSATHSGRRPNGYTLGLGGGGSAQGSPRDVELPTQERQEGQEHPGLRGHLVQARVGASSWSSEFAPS

[3] = biological target: T3, Adenosine receptor A2b (Homo sapiens) (UniProt P29275); assay: Displacement of [3H]PSB-603 from human adenosine A2B receptor expressed in CHO cells at 1 uM; assay type: cell-based
T3 sequence (whole entry): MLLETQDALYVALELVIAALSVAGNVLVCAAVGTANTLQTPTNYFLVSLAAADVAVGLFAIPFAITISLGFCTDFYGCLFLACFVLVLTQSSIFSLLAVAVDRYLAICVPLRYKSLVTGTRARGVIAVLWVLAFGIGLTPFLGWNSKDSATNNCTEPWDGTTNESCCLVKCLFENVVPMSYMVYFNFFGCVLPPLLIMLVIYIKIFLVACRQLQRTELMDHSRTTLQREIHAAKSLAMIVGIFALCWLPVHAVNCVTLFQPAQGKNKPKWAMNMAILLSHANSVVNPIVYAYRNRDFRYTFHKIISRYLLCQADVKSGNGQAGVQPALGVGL

Adenosine receptor A1 [4] = biological target: T4, Adenosine receptor A1 (Rattus norvegicus, UniProt P25099)
T4 sequence (P25099 whole entry): T1 sequence (whole entry)

[5] = biological target: Adenosine receptor A2a (Rattus norvegicus) (UniProt P30543); assay: Displacement of [3H]MSX2 from adenosine A2A receptor in rat brain striatum membrane at 1 uM; assay type: cell membranes
Chain of Adenosine receptor A2a (Rattus norvegicus) (P30543 whole entry): as the sequence (P30543 whole entry) above

Adenosine receptor A3 [6] = biological target: T5, Adenosine receptor A3 (Homo sapiens, UniProt P0DMS8); assay: biochemical
T5 sequence (P0DMS8 whole entry): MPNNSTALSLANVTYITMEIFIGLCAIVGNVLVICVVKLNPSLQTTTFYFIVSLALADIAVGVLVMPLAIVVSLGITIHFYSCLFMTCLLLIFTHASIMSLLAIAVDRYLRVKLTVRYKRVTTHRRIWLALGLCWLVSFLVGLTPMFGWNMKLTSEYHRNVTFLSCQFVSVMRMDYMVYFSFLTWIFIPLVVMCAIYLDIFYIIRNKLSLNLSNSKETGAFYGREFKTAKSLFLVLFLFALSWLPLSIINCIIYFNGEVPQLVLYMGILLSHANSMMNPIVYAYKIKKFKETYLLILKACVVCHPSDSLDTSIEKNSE

Adenosine receptor A2b = biological target: T6, Adenosine receptor A2b (Homo sapiens, UniProt P29275); assay: Displacement of [3H]PSB-603 from human adenosine A2B receptor expressed in CHO cells; assay type: cell-based
T6 sequence (P29275 whole entry): T3 sequence (whole entry)

[7] = biological target: T7, Adenosine receptor A3 (Homo sapiens) (UniProt P0DMS8); assay: Displacement of [3H]PSB-11 from human adenosine A3 receptor expressed in CHO cells at 1 uM; assay type: cell-based
T7 sequence (whole entry): T5 sequence (P0DMS8 whole entry)

Adenosine receptor A1 [8] = biological target: T8, Adenosine receptor A1 (Cavia porcellus, UniProt P47745); assay: Binding affinity to guinea pig adenosine A1 receptor
T8 sequence (P47745 whole entry): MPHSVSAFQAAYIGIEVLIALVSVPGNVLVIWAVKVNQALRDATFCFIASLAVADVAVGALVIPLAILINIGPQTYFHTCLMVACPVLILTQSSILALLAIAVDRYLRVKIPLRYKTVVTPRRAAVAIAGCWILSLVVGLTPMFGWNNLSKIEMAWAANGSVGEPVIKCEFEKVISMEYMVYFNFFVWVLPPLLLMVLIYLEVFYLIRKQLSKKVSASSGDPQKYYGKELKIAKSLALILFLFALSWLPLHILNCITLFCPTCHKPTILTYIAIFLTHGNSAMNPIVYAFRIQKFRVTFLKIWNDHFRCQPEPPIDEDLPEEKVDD

Adenosine receptor A2a [9] = biological target: Adenosine receptor A2a (Cavia porcellus, UniProt P46616); assay: Binding affinity to guinea pig adenosine A2A receptor
Chain of Adenosine receptor A2a (Cavia porcellus, UniProt P46616) (P46616 whole entry): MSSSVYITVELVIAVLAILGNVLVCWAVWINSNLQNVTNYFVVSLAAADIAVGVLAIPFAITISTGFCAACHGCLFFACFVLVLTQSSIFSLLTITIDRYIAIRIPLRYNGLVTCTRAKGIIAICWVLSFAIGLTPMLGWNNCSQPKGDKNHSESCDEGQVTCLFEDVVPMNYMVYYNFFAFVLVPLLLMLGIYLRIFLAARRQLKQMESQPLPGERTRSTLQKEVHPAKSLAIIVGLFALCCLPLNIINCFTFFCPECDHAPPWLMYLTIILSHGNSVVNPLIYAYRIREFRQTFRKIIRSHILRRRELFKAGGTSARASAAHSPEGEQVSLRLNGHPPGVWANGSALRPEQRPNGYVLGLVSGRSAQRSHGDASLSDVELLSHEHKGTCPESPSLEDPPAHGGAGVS

Adenosine receptor A1 [10] = biological target: T9, Adenosine receptor A1 (Mus musculus, UniProt Q60612); assay: Binding affinity to mouse adenosine A1 receptor
T9 sequence (Q60612 whole entry): T1 sequence (whole entry) with V151E, D155A, R157I, D316E, L319I, E325D

Adenosine receptor A2a [11] = biological target: T2, Adenosine receptor A2a; remark: listed apart in the source
Adenosine receptor A1 [12] = biological target: T4, Adenosine receptor A1; assay: Binding affinity to rat adenosine A1 receptor
Adenosine receptor A3 [13] = biological target: T5, Adenosine receptor A3; assay: Binding affinity to human adenosine A3 receptor
Adenosine receptor A1 [14] = biological target: T10, Adenosine receptor A1 (Homo sapiens, UniProt P30542); assay: Binding affinity to human adenosine A1 receptor
T10 sequence (P30542 whole entry): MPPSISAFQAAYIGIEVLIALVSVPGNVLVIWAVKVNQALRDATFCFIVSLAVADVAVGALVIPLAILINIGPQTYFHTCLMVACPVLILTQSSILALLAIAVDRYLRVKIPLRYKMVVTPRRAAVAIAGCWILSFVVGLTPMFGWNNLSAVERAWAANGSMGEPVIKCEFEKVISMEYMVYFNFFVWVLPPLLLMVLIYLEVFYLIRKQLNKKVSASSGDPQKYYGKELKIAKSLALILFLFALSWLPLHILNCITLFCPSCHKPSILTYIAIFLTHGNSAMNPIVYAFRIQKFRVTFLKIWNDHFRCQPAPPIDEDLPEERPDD

[15] = biological target: T1, Adenosine receptor A1 (Rattus norvegicus); assay: Potency shift, ratio of IC50 for rat brain cortical membrane adenosine A1 receptor in presence of 100 uM GTP to C50 for rat brain cortical membrane adenosine A1 receptor in absence of 100 uM GTP
Adenosine receptor A1 [16] = biological target: T10, Adenosine receptor A1; assay: Displacement of [3H]CCPA from human adenosine A1 receptor expressed in CHO cells; assay type: cell-based
Adenosine receptor A2a [17] = biological target: Adenosine receptor A2a (Homo sapiens, UniProt P29274); assay: Displacement of [3H]MSX2 from human adenosine A2A receptor expressed in CHO cells; assay type: cell-based
Chain of Adenosine receptor A2a (Homo sapiens, UniProt P29274) (P29274 whole entry): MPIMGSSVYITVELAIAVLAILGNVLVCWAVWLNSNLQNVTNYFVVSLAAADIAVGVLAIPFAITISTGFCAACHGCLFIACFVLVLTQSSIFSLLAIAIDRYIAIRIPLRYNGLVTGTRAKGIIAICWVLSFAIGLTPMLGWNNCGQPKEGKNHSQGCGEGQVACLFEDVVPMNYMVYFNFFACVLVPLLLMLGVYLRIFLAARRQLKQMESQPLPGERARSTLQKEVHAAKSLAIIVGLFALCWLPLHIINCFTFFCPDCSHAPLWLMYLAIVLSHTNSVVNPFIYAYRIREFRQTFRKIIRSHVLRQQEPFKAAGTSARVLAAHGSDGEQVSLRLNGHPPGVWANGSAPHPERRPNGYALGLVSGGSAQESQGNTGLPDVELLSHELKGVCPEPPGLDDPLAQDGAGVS

Adenosine receptor A1 [18] = biological target: T4, Adenosine receptor A1; assay: Displacement of [3H]DPCPX from adenosine A1 receptor in rat brain cortical membrane in presence of 100 uM GTP; assay type: cell membranes
Adenosine receptor A1 [19] = biological target: T4, Adenosine receptor A1; assay: Displacement of [3H]DPCPX from adenosine A1 receptor in rat brain cortical membrane in absence of 100 uM GTP; assay type: cell membranes

Row | inhibition [1] [%] | Ki (Adenosine receptor A2a [2]) [nM] | inhibition [3] [%] | Ki (Adenosine receptor A1 [4]) [nM] | inhibition [5] [%] | Ki (Adenosine receptor A3 [6]) [nM] | Ki (Adenosine receptor A2b) [nM] | inhibition [7] [%] | SMILES | also measured
1 | < 30 | > 1000 | < 30 | > 1000 | < 30 | > 1000 | > 1000 | < 30 | Cc1ccc(C(=O)Nc2nc(-c3ccccc3)c(C(=O)c3ccc(Cl)cc3)s2)cc1 | 
2 |  |  |  |  |  |  |  |  | O=C(/C=C/c1c(-c2ccccc2)nn2ccccc12)N1CCCC[C@@H]1CCO [FK453] | IC50 (Adenosine receptor A1 [8]): 0.56 nM; IC50 (Adenosine receptor A2a [9]): 1180 nM; Ki (Adenosine receptor A1 [10]): 0.55 nM
3 |  |  |  |  |  |  |  |  | CCCn1c(=O)c2[nH]c(C34CCC(CCC(=O)O)(CC3)CC4)nc2n(CCC)c1=O [TONAPOFYLLINE] | Ki (Adenosine receptor A2a [11]): 2440 nM; Ki (Adenosine receptor A1 [12]): 1.3 nM; Ki (Adenosine receptor A3 [13]): 10 µM
4 |  | > 1000 | < 30 | 7.15 | < 30 | 1000 | > 1000 | 56 | COc1ccc(C(=O)c2sc(NC(=O)c3ccccc3)nc2-c2ccccc2)cc1 | 
5 |  |  |  |  |  |  |  |  | O=C(c1ccccc1)c1sc(NCCc2cccs2)nc1-c1ccco1 | Ki (Adenosine receptor A1 [14]): > 6700 nM
6 |  | 662 | < 30 | 5.77 |  | 208 | > 1000 |  | O=C(Nc1nc(-c2ccccc2)c(C(=O)c2ccccc2)s1)c1ccco1 | Ratio IC50 [15]: 1.2; Ki (Adenosine receptor A1 [16]): 54.3 nM; Ki (Adenosine receptor A2a [17]): 0.348 µM; IC50 (Adenosine receptor A1 [18]): 28.8 nM; IC50 (Adenosine receptor A1 [19]): 25.4 nM
7 |  | 2470 |  |  |  | 3250 |  |  | OC[C@H]1O[C@@H](n2cnc3c(NC4CCCC4)ncnc32)[C@H](O)[C@@H]1O [N6-CYCLOPENTYLADENOSINE] | 
8 | < 30 | > 1000 | < 30 | > 1000 | < 30 | > 1000 | > 1000 | < 30 | CNc1nc(-c2ccccc2)c(C(=O)c2ccccc2)s1 | 
9 | < 30 | > 1000 | < 30 | > 1000 | < 30 | > 1000 | > 1000 | < 30 | CS(=O)(=O)c1ccc(C(=O)c2sc(NC(=O)c3ccccc3)nc2-c2ccccc2)cc1 | 
10 |  | 1840 | < 30 | 69.9 |  | 98.8 | > 1000 |  | CCOC(=O)Nc1nc(-c2ccccc2)c(C(=O)c2ccc(OC)cc2)s1 | 
11 | < 30 | > 1000 | < 30 | > 1000 | < 30 | > 1000 | > 1000 | < 30 | Cc1ccc(C(=O)c2sc(Nc3ccccc3)nc2-c2ccccc2)cc1 | 
12 | 41 | > 1000 | < 30 | 1000 | < 30 | 487 | > 1000 |  | CCOC(=O)Nc1nc(-c2ccccc2)c(C(=O)c2ccc(Cl)cc2)s1 | 
13 |  |  |  |  |  |  |  |  | OC1CCC(Nc2nc(-c3ccccc3)nc3[nH]ccc23)CC1 (centres undefined) [DERENOFYLLINE] | Ki (Adenosine receptor A2a [11]): 501 nM; Ki (Adenosine receptor A1 [12]): 2.51 nM; Ki (Adenosine receptor A1 [14]): 1 nM; Ki (Adenosine receptor A3 [13]): 0.2 µM
14 |  | 1640 |  | 72.9 |  | 206 | 391 |  | CCOC(=O)Nc1nc(-c2ccccc2)c(C(=O)c2ccccc2)s1 | 
15 | < 30 | > 1000 | < 30 | > 1000 | < 30 | > 1000 | > 1000 | < 30 | CNc1nc(-c2ccccc2)c(C(=O)c2ccc(Cl)cc2)s1 | 
16 | < 30 | > 1000 | < 30 | > 1000 | < 30 | > 1000 | > 1000 | < 30 | CNc1nc(-c2ccccc2)c(C(=O)c2ccc(OC)cc2)s1 | 
17 | < 30 | > 1000 | < 30 | > 1000 | < 30 | > 1000 | > 1000 | < 30 | CS(=O)(=O)c1ccc(C(=O)c2sc(Nc3ccccc3)nc2-c2ccccc2)cc1 | 
18 |  | > 1000 | < 30 | 4.83 | < 30 | 2160 | > 1000 |  | Cc1ccc(C(=O)c2sc(NC(=O)c3ccccc3)nc2-c2ccccc2)cc1 | Ratio IC50 [15]: 0.99; Ki (Adenosine receptor A1 [16]): 57.4 nM; Ki (Adenosine receptor A2a [17]): 6.25 µM; IC50 (Adenosine receptor A1 [18]): 22.3 nM; IC50 (Adenosine receptor A1 [19]): 22.1 nM
19 | < 30 | > 1000 | 40 | > 1000 | < 30 | > 1000 | > 1000 | < 30 | Cc1ccc(C(=O)Nc2nc(-c3ccccc3)c(C(=O)c3ccccc3)s2)cc1 | 
20 |  |  |  |  |  |  |  |  | CCCn1c(=O)c2[nH]c(C34CC5CC(CC3C5)C4)nc2n(CCC)c1=O [ROLOFYLLINE] | Ki (Adenosine receptor A2a [11]): 170 nM; Ki (Adenosine receptor A2a [9]): 230 nM
21 |  | > 1000 | < 30 | 12 | < 30 | 619 | > 1000 |  | O=C(Nc1nc(-c2ccccc2)c(C(=O)c2ccc(Cl)cc2)s1)c1ccco1 | 
22 |  |  |  |  |  |  |  |  | O=C(O)CCCn1nc(-c2c(-c3ccccc3)nn3ccccc23)ccc1=O | Ki (Adenosine receptor A2a [11]): 1200 nM; Ki (Adenosine receptor A1 [14]): 12 nM; Ki (Adenosine receptor A1 [8]): 10 nM; Ki (Adenosine receptor A1 [10]): 10.2 nM
23 | < 30 |  | 39 |  | < 30 |  |  | < 30 | COc1ccc(C(=O)c2sc(Nc3ccccc3)nc2-c2ccccc2)cc1 | 
24 | < 30 | > 1000 |  | > 1000 | < 30 | > 1000 | 337 | < 30 | O=C(c1ccccc1)c1sc(Nc2ccccc2)nc1-c1ccccc1 | 
25 |  | 3030 | < 30 | 9.51 |  | 354 | > 1000 |  | O=C(Nc1nc(-c2ccccc2)c(C(=O)c2ccccc2)s1)c1ccccc1 | 
